The record followed here is ChEMBL document CHEMBL1128963, “A non-peptide ligand for the somatostatin receptor having a benzodiazepinone structure” (Bioorg Med Chem Lett, 1996).

The IC50 is the concentration that gives 50% inhibition. High values mean a need for much substance, low ones inhibition by little substance.

This experiment has as its target Somatostatin receptor. Put plainly: Compound was tested for its inhibitory effect against somatostatin receptor in rat cortex membrane using [125I]Tyr3-octreotide as the radioligand. It counts as cell membranes.
Take `NCCCCCN1C(=O)C(Cc2c[nH]c3ccccc23)N(C(=O)c2ccccc2)Cc2ccccc21` (single isomer, unassigned; (-)): the half-inhibitory concentration (IC50) worked out at 6.5 µM and the “Log Ki” value was -5.2.

Consider `NCCCCCN1C(=O)C(Cc2c[nH]c3ccccc23)N(C(=O)c2ccccc2)Cc2ccccc21` (stereo in doubt; 2), for which the half-inhibitory concentration (IC50) was 7 µM and the “Log Ki” value was -5.1. `NCCCCCN1C(=O)C(Cc2c[nH]c3ccccc23)N(C(=O)c2ccccc2)Cc2ccccc21` (stereo in doubt; (+)2) showed an IC50 of 8.2 µM. `C[C@H](N)C(=O)NCC(=O)N[C@@H]1CSSC[C@@H](C(=O)O)NC(=O)[C@H](CO)NC(=O)[C@@H]([C@@H](C)O)NC(=O)[C@H](Cc2ccccc2)NC(=O)[C@@H]([C@@H](C)O)NC(=O)[C@H](CCCCN)NC(=O)[C@H](Cc2c[nH]c3ccccc23)NC(=O)[C@H](Cc2ccccc2)NC(=O)[C@@H](Cc2ccccc2)NC(=O)[C@H](CC(N)=O)NC(=O)[C@@H](CCCCN)NC1=O` [SOMATOSTATIN RECEPTOR LIGAND] yielded an IC50 of 0.00043 µM.
